Consider one compound from article PMC6743335 (Journal of the American Chemical Society, 2018).

In this test the target is T1, human ATR (adenosyltransferase) (Homo sapiens, UniProt Q96EY8).
T1 sequence (Q96EY8 33-250 limits assumed): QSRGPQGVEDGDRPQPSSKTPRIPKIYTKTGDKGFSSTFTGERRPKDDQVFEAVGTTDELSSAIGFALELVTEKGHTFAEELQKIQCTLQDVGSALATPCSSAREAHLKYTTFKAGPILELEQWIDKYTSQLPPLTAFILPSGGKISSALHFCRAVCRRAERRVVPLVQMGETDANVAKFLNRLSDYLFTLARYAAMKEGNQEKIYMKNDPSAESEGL
The experiment in a line: binding, method in supplement. The note with it: ATP in the third site of the crystal with Mg.

As for `Nc1ncnc2c1ncn2[C@@H]1O[C@H](COP(=O)(O)OP(=O)(O)OP(=O)(O)O)[C@@H](O)[C@H]1O` [ATP], the Kd result is “Electron density for AdoCbl was observed in two active sites”.
